Columns and labels:
[1] = tested on: murine subretinal scar model; test: Test on inhibition of murine subretinal scar formation; format: in vivo, mouse C57BL/6; conditions: 7 days after injection
Description: (Test on Inhibition of Murine Subretinal Scar Formation)
A murine subretinal scar model was produced to study whether the benzoic acid of the invention has an effect of inhibiting subretinal scar formation. A subretinal scar model in a mouse was produced by the method shown below in accordance with the method of Young-joon et al (Investigative Ophthalmology & Visual Science, 52, 6089-6095([…])).
(Production of Murine Subretinal Scar Model)
First, laser was irradiated (0.05 seconds, 200 mW, 532 nm) onto one location on the posterior pole of fundus of mouse C57BL/6 (purchased from SLC) to destroy the Bruch's membrane, which enabled infiltration of inflammatory cells from the choroid as well as creation of air bubbles subretinally.
A 33G needle was then inserted from pars plana. 0.5 μl of 4×10^7 ml thioglycollate elicited peritoneal macrophage and 1 μg, 5 μg, or 50 μg of the benzoic acid of the invention were subretinally injected. For the control, the benzoic acid of the invention was not injected (0 μg).
The subretinal area was observed and subretinal scar region was measure 7 days after injection of the macrophage and the benzoic acid of the invention described above.

[2] = tested on: murine retinal pigment epithelial cells; test: Test on inhibition of three-dimensional collagen gel atrophy in murine retinal pigment epithelial cell; format: cell-based, mouse; conditions: 1 ng/ml TGF-B2; 0.01, 0.1 or 1 μM; gel diameter after 24 hours; FIG. 1
Description: (Test on Inhibition of Three-Dimensional Collagen Gel Atrophy in Murine Retinal Pigment Epithelial Cell)
Murine retinal pigment epithelial cells were used to assess the inhibition effect of a tested compound on three-dimensional collagen gel atrophy in accordance with the method of Nishida et al (Investigative Ophthalmology & Visual Science 42: 1247-1253 (2001)). A subretinal sheet-like pigment epithelial cell comprising a retinal pigment epithelial cell from a mouse eyeball was collected and grown in primary culture. The cultured cell was detached and collected from a culture slide with 0.05% Trypsin-EDTA. After washing twice in a serum free medium (MEM: product number 11095; Gibco), a serum-free medium was added to make a cell suspension. Type I collagen (3 mg/ml: product number 637-00653; Nitta Gelatin Inc.), 10×MEM, reconstitution buffer (product number 635-00791; Nitta Gelatin Inc.), cell suspension (1.1×10^7 cells/ml in MEM), and water were mixed on ice at the volume ratio of 7:1:1:0.2:1.8. A culture dish coated with 1% BSA was inoculated with the mixture (0.5 ml), which was incubated for one hour at 37° C. to make a collagen gel. Then, 0.5 ml each of serum free media, to which 1 ng/ml of TGF-B2 (R&D) and 0, 0.01, 0.1, or 1 μM of the benzoic acid of the invention were added, was added onto collagen gels and incubated at 37° C. The diameter of gels was measured after 24 hours. […]

SMILES: CC1(C)CCC(C)(C)c2cc(Cn3cccn3)c(/C=C/c3ccc(C(=O)O)cc3)cc21 [benzoic acid of the invention, (E)-4-(2-{3-[(1H-pyrazole-1-yl)methyl]-5,5,8,8-tetramethyl-5,6,7,8-tetrahydronaphthalene-2-yl}vinyl)benzoic acid]
- subretinal scar region (fibrillation region) ([1]; 1 μg, 5 μg or 50 μg subretinally injected with macrophages, FIG. 2B): narrows as the amount of injection of the benzoic acid of the invention increases
- formation of a subretinal scar (subretinal observation) ([1]; 50 μg subretinally injected with macrophages, in comparison to the control, FIG. 2A): formation of a scar was inhibited
- collagen atrophy due to TGF (diameter of collagen gel) [2]: can inhibit collagen atrophy due to TGF
